Laboratory results taken from ChEMBL document CHEMBL1201862, “PubChem BioAssay data set” (2004).
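Test compounds were applied to cells in 96-well plates for 48 hours at 5 doses. Here, GI50 denotes the concentration required for 50% inhibition of growth.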 The source made the active and inactive calls. No stated cut-off is given here; in the data, active = GI50 up to about 1.1 µM and inactive = higher.

How the values were obtained:
Assay in all cases: NCI tumour cell line growth inhibition, 48 h
[1] = system: 786-0
[2] = system: A498
[3] = system: A549
[4] = system: ACHN
[5] = system: BT-549
[6] = system: CAKI-1
[7] = system: COLO 205
[8] = system: DU-145
[9] = system: EKVX
[10] = system: HCC 2998
[11] = system: HCT-116
[12] = system: HCT-15
[13] = system: HOP-62
[14] = system: HOP-92
[15] = system: HT-29
[16] = system: Hs-578T
[17] = system: IGROV-1
[18] = system: K562
[19] = system: LOX IMVI
[20] = system: M14
[21] = system: MCF7
[22] = system: MDA-MB-231
[23] = system: MDA-MB-435
[24] = system: MOLT-4
[25] = system: Malme-3M
[26] = system: NCI-H226
[27] = system: NCI-H23
[28] = system: NCI-H460
[29] = system: NCI-H522
[30] = system: NCI/ADR-RES
[31] = system: OVCAR-3
[32] = system: OVCAR-4
[33] = system: OVCAR-5
[34] = system: OVCAR-8
[35] = system: PC-3
[36] = system: RXF 393
[37] = system: SF-268
[38] = system: SF-539
[39] = system: SK-MEL-28
[40] = system: SK-MEL-2
[41] = system: SK-MEL-5
[42] = system: SK-OV-3
[43] = system: SN12C
[44] = system: SNB-19
[45] = system: SNB-75
[46] = system: SW-620
[47] = system: T47D
[48] = system: U-251
[49] = system: UACC-257
[50] = system: UACC-62
[51] = system: UO-31
[52] = system: CCRF-CEM
[53] = system: HL-60
[54] = system: KM12
[55] = system: RPMI-8226
[56] = system: SF-295
[57] = system: TK-10

O=C(OCc1ccccc1CN1CCOCC1)c1cccc(Br)c1
GI50 [1]: 74.8 µM (inactive) | GI50 [2]: > 100 µM (inactive) | GI50 [3]: 28.7 µM (inactive) | GI50 [4]: 63.1 µM (inactive) | GI50 [5]: 52.6 µM (inactive) | GI50 [6]: 40.2 µM (inactive) | GI50 [7]: 39.4 µM (inactive) | GI50 [8]: 71 µM (inactive) | GI50 [9]: 34.5 µM (inactive) | GI50 [10]: 28.3 µM (inactive) | GI50 [11]: 32.9 µM (inactive) | GI50 [12]: 36.4 µM | GI50 [13]: 53.2 µM (inactive) | GI50 [14]: 43.6 µM (inactive) | GI50 [15]: 16 µM (inactive) | GI50 [16]: 29.9 µM (inactive) | GI50 [17]: 19.7 µM (inactive) | GI50 [18]: 6.3 µM (inactive) | GI50 [19]: 31.3 µM (inactive) | GI50 [20]: 36.9 µM (inactive) | GI50 [21]: 37 µM (inactive) | GI50 [22]: 33.7 µM (inactive) | GI50 [23]: > 100 µM (inactive) | GI50 [24]: < 0.01 µM (active) | GI50 [25]: 21.7 µM (inactive) | GI50 [26]: 44.8 µM (inactive) | GI50 [27]: 27.9 µM (inactive) | GI50 [28]: 83.8 µM (inactive) | GI50 [29]: 20.9 µM (inactive) | GI50 [30]: 26.7 µM (inactive) | GI50 [31]: 17.7 µM (inactive) | GI50 [32]: 20.9 µM (inactive) | GI50 [33]: 36.3 µM (inactive) | GI50 [34]: 44.5 µM (inactive) | GI50 [35]: 37.2 µM (inactive) | GI50 [36]: 78.7 µM (inactive) | GI50 [37]: 62.8 µM (inactive) | GI50 [38]: 43.6 µM (inactive) | GI50 [39]: 33.1 µM (inactive) | GI50 [40]: 22.3 µM (inactive) | GI50 [41]: 17.7 µM (inactive) | GI50 [42]: > 100 µM (inactive) | GI50 [43]: 39.3 µM (inactive) | GI50 [44]: 93.1 µM (inactive) | GI50 [45]: 31.2 µM (inactive) | GI50 [46]: 53.6 µM (inactive) | GI50 [47]: 18.7 µM (inactive) | GI50 [48]: 47.6 µM (inactive) | GI50 [49]: 24.6 µM (inactive) | GI50 [50]: 33.6 µM (inactive) | GI50 [51]: 62.2 µM (inactive)

O=C(CSCC(=O)N/N=C/c1cccc(OCc2ccccc2)c1)N/N=C/c1cccc(OCc2ccccc2)c1
GI50 [1]: 54.2 µM (inactive) | GI50 [2]: > 44.3 µM (inactive) | GI50 [3]: 27.9 µM (inactive) | GI50 [4]: 32.9 µM (inactive) | GI50 [5]: 68.1 µM (inactive) | GI50 [6]: > 100 µM (inactive) | GI50 [52]: 24.4 µM (inactive) | GI50 [8]: > 100 µM (inactive) | GI50 [9]: 69.3 µM (inactive) | GI50 [10]: 30.6 µM (inactive) | GI50 [11]: 26.8 µM (inactive) | GI50 [12]: 44.4 µM | GI50 [53]: 21.5 µM (inactive) | GI50 [13]: > 100 µM (inactive) | GI50 [14]: 36.7 µM (inactive) | GI50 [15]: 39.5 µM (inactive) | GI50 [16]: > 100 µM (inactive) | GI50 [17]: > 70.8 µM (inactive) | GI50 [18]: 22.3 µM (inactive) | GI50 [54]: 33.3 µM (inactive) | GI50 [19]: 36.1 µM (inactive) | GI50 [20]: 37.5 µM (inactive) | GI50 [21]: 33.7 µM (inactive) | GI50 [22]: > 100 µM (inactive) | GI50 [23]: 37.5 µM (inactive) | GI50 [24]: 15.5 µM (inactive) | GI50 [25]: 45.5 µM (inactive) | GI50 [26]: > 74.5 µM (inactive) | GI50 [27]: 36.6 µM (inactive) | GI50 [28]: 34.4 µM (inactive) | GI50 [29]: > 47.6 µM (inactive) | GI50 [30]: 44.6 µM (inactive) | GI50 [31]: 39.5 µM (inactive) | GI50 [32]: > 76.4 µM (inactive) | GI50 [33]: 96.8 µM (inactive) | GI50 [34]: 32.2 µM (inactive) | GI50 [35]: 20 µM (inactive) | GI50 [55]: 8.91 µM (inactive) | GI50 [36]: > 69.7 µM (inactive) | GI50 [37]: > 80.2 µM (inactive) | GI50 [56]: 34.2 µM (inactive) | GI50 [38]: > 100 µM (inactive) | GI50 [39]: > 100 µM (inactive) | GI50 [40]: 41.3 µM (inactive) | GI50 [41]: 31.3 µM (inactive) | GI50 [42]: > 100 µM (inactive) | GI50 [43]: 35.5 µM (inactive) | GI50 [44]: 57.5 µM (inactive) | GI50 [45]: > 100 µM (inactive) | GI50 [46]: > 87.1 µM (inactive) | GI50 [47]: 38.9 µM (inactive) | GI50 [57]: 33.3 µM (inactive) | GI50 [48]: 39.2 µM (inactive) | GI50 [49]: 32.3 µM (inactive) | GI50 [50]: > 92.3 µM (inactive) | GI50 [51]: 46.9 µM (inactive)
